The values that follow come from patent US5246935A, “Piperazinyl derivatives and methods of treating central nervous system ailments relating to the 5-HT2 receptor system” (Novo Nordisk A/S, priority 1990, dated 1993).

As usually defined, the ED50 is the midpoint of the dose-response relation. A high value points to a need for a large dose. As a reminder, the IC50 is the concentration that inhibits the measured activity by half.

Where a name gives a salt, the structure may show the parent alone.

For one assay, the system named is 5-HT1A receptors. The following applies: cited from earlier work.
For assay [1], the system named is ischemic neuronal damage in the gerbil. The following applies: cited from earlier work.
Assay [2] relates to acetic acid-induced writhings in mice. Briefly: Antagonism of Acetic Acid-Induced Writhings In Mice. The class given is in vivo, mouse (NMRI). The following applies: Mus musculus, sc; s.c. 30 min before acetic acid 0.5 per cent i.p.; 50 per cent protection. Here is the method: Antagonism of Acetic Acid-Induced Writhings In Mice
In mice i.p. injection of acetic acid induces a writhing syndrome which is antagonized by analgesics (Siegmund et al., 1957; Eckhardt et al., 1957).
Acetic acid 0.5 per cent is injected i.p. (0.15 ml/10 g body weight) to 6 mice (NMRI, either sex weighing 20-25 g) pretreated with physiological saline (controls) and to 6 mice pretreated with test substance. In the controls acetic acid induces a syndrome characterized by contraction of abdomen, turning of trunk and extension of hind limbs. Saline and test substances are administered s.c. 30 min. before acetic acid. The number of writhings is counted 5-15 min. after injection of acetic acid.
The activity is expressed as per cent protection: [formula]
The effect of active substances is evaluated by a dose response curve, log dose on the abscissa, and per cent protection on the ordinate. The potency is expressed as the dose (ED50 in mg/kg giving 50 per cent protection against writhings.
This test is used as a screening test for analgesics. Additional results from other screening tests are required to exclude active anti-writhing substances without analgesic effect.

For a further assay, the target named is T1, 5HT1A receptor (Rattus norvegicus, UniProt P19327).
T1 sequence (P19327 1-422): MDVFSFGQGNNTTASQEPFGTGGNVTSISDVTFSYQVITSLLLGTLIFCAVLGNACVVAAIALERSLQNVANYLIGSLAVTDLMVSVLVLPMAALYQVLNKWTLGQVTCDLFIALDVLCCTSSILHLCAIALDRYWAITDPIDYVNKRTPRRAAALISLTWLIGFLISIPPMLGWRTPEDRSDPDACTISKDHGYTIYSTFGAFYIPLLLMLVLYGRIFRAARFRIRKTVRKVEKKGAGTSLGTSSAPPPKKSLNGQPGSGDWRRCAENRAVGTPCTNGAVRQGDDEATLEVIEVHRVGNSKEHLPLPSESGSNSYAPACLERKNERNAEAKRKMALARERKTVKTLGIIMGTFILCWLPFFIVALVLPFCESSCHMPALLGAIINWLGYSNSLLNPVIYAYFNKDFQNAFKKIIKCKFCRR
Kind of assay: In-Vitro inhibition of 5HT1A receptor binding (3H-8-OH-DPAT). More on the design: species or system rat (male Wistar). To be noted: 3H-8-OH-DPAT 1 nM, rat frontal cortex and hippocampus, 37° C., 10 min. The method, then: In-Vitro inhibition of 5HT1A receptor binding
Radioactive-labelled ligand ^3 H-80H-DPAT is incubated with isolated cell-membrane fragments at 37° C. for a given period of time. Following completed incubation, the incubate is filtered through GF/F filters which are rinsed after filtration to remove unspecifically adhered radioactivity. As opposed to low-molecular compounds, membrane fragments are not rinsed through the filters, the radioactivity bound to the filters indicates the amount of ligand bound specifically as well as nonspecifically to the membranes.
Male Wistar rats, 150-200 g are decapitated, and frontal cortex (approx. 200 mg) and hippocampus (approx. 70 mg) homogenized in 2×10 ml ice-cold DPAT buffer for 20 sec. applying polytron kinematica setting 6. Centrifuged at 20,000 rpm for 10 min. at 4° C. The pellet is transferred to 2×10 ml ice-cold DPAT buffer, homogenized for 20 sec. and preincubated for 10 min. at 37° C. Centrifuged at 20,000 rpm for 10 min. at 4° C. Final pellet added to 125×vol. of same buffer with 10 μM paragylin added (ex. 270 mg tissue in 33.75 ml DPAT buffer containing paragylin). Prepared fresh every day. Use within 30 minutes.
1,250 μl tissue 25 μl ^3 H-80H-DPAT (1 nM) 25 μl test substance/H2 O/blind serotonin (10 μM)
Incubation at 37° C. for 10 min.--at 10 sec. intervals. To the tubes is added 10 ml ice-cold 0.9% NaCl. Filtration through GF/F filters (use gloves). This procedure is repeated. Filters are placed in counting vials and 4 ml optiflow added (prepare in fume cupboard, use gloves). Counted at window 0-19 of the beta- counter (Pachard). Note that receptor box and lid are rinsed thoroughly in H2 O after use to avoid contamination. Further the analytical site is cleaned carefully every day.
Dissolved in H2 O, EtOH, MeOH or DMSO and further diluted in H2 O. The DPAT binding will stand concentrations of up to approx. 5% of these solvents without affecting the binding. Most stock solutions are stable at 4° C. Attention should, however, be paid to any precipitation, change in colour etc. Test-substance dilutions are always prepared fresh every day. When weighing out test substances, it is attempted to weigh out approx. 1 mg of substance. Less than 0.8 mg must never be weighed out and only infrequently more than 2 mg (for economy reasons) dependent, however on conc./assay.

A further assay concerns the target T2, 5HT2 receptor (Rattus norvegicus, UniProt P14842).
T2 construct: incubated with isolated cell-membrane fragments; from tissue; host or cells: frontal cortex of male Wistar rats (membranes)
Briefly: In Vitro Inhibition of 5HT2-Receptor Binding (3H-Ketanserine). To be noted: 3H-Ketanserine 0.4 nM, rat frontal cortex, 37° C., 15 min. Details: species or system rat (male Wistar). The method, then: In Vitro Inhibition of 5HT2 -Receptor Binding
Radioactive-labelled ligand ^3 H-Ketanserine is incubated with isolated cell-membrane fragments at 37° C. for a given period of time. Following completed incubation, the incubate is filtered through GF/B filters which are rinsed after filtration to remove unspecifically adhered radioactivity. As opposed to low-molecular compounds, membrane fragments are not rinsed through the filters, the radioactivity bound to the filters indicates the amount of ligand bound specifically as well as non-specifically to the membranes.
The preparation is made in ice bath. Polytron kinematica is rinsed with milli-Q-H2 O before and after use. Male Wistar rats, 150-200 g are decapitated. Frontal cortex is removed quickly and weighed (approx. 200 mg). Frontal cortex is added to centrifuging vial containing 10 ml ice-cold D2 buffer. Homogenization applying polytron kinematica (homogenizer) setting 6 for 20 sec. The homogenizer is rinsed with 10 ml D2 buffer in another centrifuging vial. The 10 ml rinsing buffer is added to the tissue vial. Centrifuged at 18,000 rpm for 10 min. at 4° C. Final pellet is transferred to 125×vol. of same buffer. (Ex. 200 mg in 25 ml D2 buffer). Can be stored for approx. 30 min. at 0° C.
25 μl ^3 H-Ketanserine (0.4 nM)
25 μl test substance/H2 O/blind cyproheptadine (2 μM)
Incubation for 15 min. at 37° C.
10 ml ice-cold 0.9% NaCl is added to the tubes. Filtration is performed through GF/B filters (use gloves). This procedure is repeated. Filters are placed in counting vials, and 4 ml opti- flour is added (prepare in fume cupboard, use gloves). Counting at window 0-19 of the beta-counter (Pachard). Note that receptor box and lid are rinsed thoroughly in H2 O after use to avoid contamination. Further the analytical site is cleaned carefully every day.
Dissolved in H2 O, EtOH, MeOH or DMSO and further diluted in H2 O. The 5HT2 binding will stand concentrations of up to approx. 5% of these solvents without affecting the binding. Most stock solutions are stable at 4° C. Attention should, however, be paid to any precipitation, change in colour etc. Test-substance dilutions are always made fresh every day. When weighing out test substance, it is attempted to weigh out approx. 1 mg of substance. Less than 0.8 mg must never be weighed out and only infrequently more than 2 mg (for economy reasons) dependent, however, on conc./assay.

Another assay addresses Alpha1 receptor. Briefly: In-Vitro Inhibition of Alpha1-Receptor Binding (3H-Prazosin). More on the design: species or system rat (male Wistar). To be noted: 3H-Prazosin 0.5 nM, rat cortex, 25° C., 30 min; read-out: Receptor binding IC50 α1. The method, then:
In-Vitro Inhibition of Alpha1 -Receptor Binding, Radioactive-labelled ligand ^3 H-Prazosin is incubated with isolated cell-membrane fragments at 25° C. for a given period of time. Following completed incubation, the incubate is filtered through GF/B filters, which are rinsed following filtration to remove unspecifically adhered radioactivity. As opposed to low- molecular compounds, membrane fragments are not rinsed through the filters, the radioactivity bound to the filters indicates the amount of ligand bound specifically as well as nonspecifically to the membranes. The procedure is performed in ice bath. Polytron kinematica is rinsed with milli-Q-H2 O before and after use. Male Wistar rats, 150-200 g are decapitated, cortex is removed quickly and weighed (approx. 500 mg). Cortex is transferred to a centrifuging vial containing 10 ml ice-cold D2 buffer. Homogenization applying polytron kinematica (homogenizer) setting 6 for 20 sec. The homogenizer is rinsed with 10 ml D2 buffer in another centrifuging vial. The 10 ml rinsing buffer is added to the tissue vial. Centrifugation at 18,000 rpm for 12 min. at 4° C. This is repeated once. Final pellet is added to 400×vol. of same buffer. (Ex. 500 mg cortex in 200 ml D2 buffer). Can be stored for 30 min. at 0° C. 2,000 μl tissue 25 μl ^3 H-Prazosin (0.5 nM) 25 μl test substance/H2 O/blind Phentolamine (10 μM) Incubation for 30 min. at 25° C. 10 ml of ice-cold 0.9% NaCl is added to the tubes and filtered through GF/B filters (use gloves). This procedure is repeated. Filters are placed in counting vials and 4 ml opti-flour is added (perform in fume cupboard, use gloves). Counting is performed at window 0-19 of the betacounter (Pachard). […] Further, the analytical site is cleaned carefully every day after use. Dissolved in H2 O, EtOH, MeOH or DMSO and further diluted in H2 O. […] Most stock solutions are stable at 4° C. Attention should, however, be paid to any precipitation, change in colour etc. Test-substance dilutions are always prepared fresh every day. When weighing out test substances, it is attempted to weigh out approx. 1 mg of substance. Less than 0.8 mg must never be weighed out and only infrequently more than 2 mg (for economy reasons) dependent, however, on conc./ass.

In a further assay the test system is dopamine D2 receptors. The following applies: cited from earlier work.
In another assay the test system is psychosis. To be noted: in vivo; cited from earlier work.
In a further assay the test system is anxiety, depression. To be noted: clinical; cited from earlier work.
Assay [3] relates to 5HT2, alpha1-adrenergic and dopaminergic receptors. The following applies: cited from earlier work.
A further assay relates to 5-HT2 receptor. To be noted: cited from earlier work.

T2 sequence (P14842 whole entry, the tested form may be a part): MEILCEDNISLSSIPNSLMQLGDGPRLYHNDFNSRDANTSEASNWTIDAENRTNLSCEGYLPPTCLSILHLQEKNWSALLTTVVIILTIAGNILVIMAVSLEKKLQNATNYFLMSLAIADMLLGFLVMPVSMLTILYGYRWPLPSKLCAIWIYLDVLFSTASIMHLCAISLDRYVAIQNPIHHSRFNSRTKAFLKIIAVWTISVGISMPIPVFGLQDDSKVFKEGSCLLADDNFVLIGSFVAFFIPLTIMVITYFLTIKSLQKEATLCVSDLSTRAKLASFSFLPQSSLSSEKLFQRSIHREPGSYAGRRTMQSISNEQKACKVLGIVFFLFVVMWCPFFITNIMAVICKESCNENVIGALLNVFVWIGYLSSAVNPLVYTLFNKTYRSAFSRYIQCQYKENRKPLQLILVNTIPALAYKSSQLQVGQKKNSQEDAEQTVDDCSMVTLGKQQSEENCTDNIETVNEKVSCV

`CCCN(CCC)C1CCc2cccc(O)c2C1` (centres unmarked) [Example 8-OH-DPAT, 8-hydroxy-2-(di-n-propylamino)tetralin]: the “binding affinity / selectivity for 5-HT1A receptors (in words)” value in the assay with 5-HT1A receptors is on record as “high affinity”. Also, in assay [1], the “protective effect on ischemic neuronal damage in the gerbil (in words)” value is listed as “exhibit a protective effect on ischemic neuronal damage”.

Take `Cl.O=C(Nc1ccc2c(c1)OCO2)OCCCN1CCN(c2cccc(Cl)c2)CC1` [Example 15, 4-(3-Chlorophenyl)-1-[3-(3,4-methylenedioxyphenylcarbamoyloxy)propyl]piperazine, hydrochloride]: it took a dose of 5.6 mg/kg to reach the 50% effect level in assay [2] (ED50).

In the case of `Cl.O=C(Nc1ccc2c(c1)OCCO2)OCCCN1CCN(c2cccc(Cl)c2)CC1` [Example 18, 4-(3-Chlorophenyl)-1-[3-(3,4-ethylenedioxyphenylcarbamoyloxy)propyl]piperazine, hydrochloride], the ED50 in assay [2] was found to be 7 mg/kg.

For `COc1cc(NC(=S)OCCCN2CCN(c3ccccc3Cl)CC2)cc(OC)c1OC` [Example 24, 4-(2-Chlorophenyl)-1-(3-[3,4,5-trimethoxyphenyl(thiocarbamoyl)oxy]propyl)piperazine, hydrochloride], the IC50 turned out to be 0.061 µM at 5HT1A receptor, 0.049 µM on 5HT2 receptor and 0.0075 µM at Alpha1 receptor.

Take `CCOC(=O)C1(c2ccccc2)CCN(C)CC1` [Pethidine, reference compound]: the ED50 in assay [2] was determined as 9.3 mg/kg.

As for `Cc1nc2n(c(=O)c1CCN1CCC(c3noc4cc(F)ccc34)CC1)CCCC2` [Risperidone], the “antagonism of dopamine D2 receptors (in words)” value with dopamine D2 receptors is given as “potent antagonist”. Further, in the assay on psychosis, the “antipsychotic properties (in words)” value was “antipsychotic properties”.

Consider `Cc1nc2sccn2c(=O)c1CCN1CCC(=C(c2ccc(F)cc2)c2ccc(F)cc2)CC1` [Ritanserin], for which the “anxiolytic / antidepressant efficacy (in words)” value in the assay with anxiety, depression is listed as “demonstrate clinical efficacy as anxiolytic-antidepressant agents”.

In the case of `O=C1CC2(CCCC2)CC(=O)N1CCCCN1CCN(c2ncccn2)CC1` [buspirone], in the assay on 5-HT1A receptors, the “binding affinity / selectivity for 5-HT1A receptors (in words)” value was “selectivity for 5-HT1A receptors”. For the same compound, the “anxiolytic / antidepressant efficacy (in words)” value in the assay with anxiety, depression is “effective anxiolytic agent”.

With `CN1CCN(C2=Nc3cc(Cl)ccc3Nc3ccccc32)CC1` [clozapine], the “antipsychotic properties (in words)” value in the assay with psychosis is “unprecedented antipsychotic potential”. Besides, the “binding to 5HT2, alpha1-adrenergic and dopaminergic receptors (in words)” value in assay [3] is “nonselectively binds”.

For `O=C(c1ccc(F)cc1)C1CCN(CCn2c(=O)[nH]c3ccccc3c2=O)CC1` [ketanserin], in the assay with 5-HT2 receptor, the “affinity for / antagonism of 5-HT2 receptor (in words)” value is recorded as “high affinity”.

As to `CCN(CC)CCOC(=O)C(Cc1cccc2ccccc12)CC1CCCO1` (centres unmarked) [naftidrofuryl], the “protective effect on ischemic neuronal damage in the gerbil (in words)” value in assay [1] is recorded as “exhibit a protective effect on ischemic neuronal damage”.
